Source: PubChem BioAssay AID1918955 (Molecular Pharmacology Branch, DTP, NCI, 2023)

Tested on: NCI/ADR-RES complex spheroid viability
Assay: Anticancer human tumor NCI/ADR-RES cell line growth inhibition;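 also: spheroids exposed to compounds for 7 days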;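 as to viability, T/C: 100% = DMSO vehicle treated spheroids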
Details: for IC50: curve of first compound; for viability, T/C: stronger effect = lower value
How it was run: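 Drug combinations with the LSD1 inhibitor iadademstat tested on tumor cells co-cultured as spheroids with endothelial cells and mesenchymal stem cells. Concentrations descended in half-log increments from clinical Cmax or 10 microM.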

[1] = second compound 0.1 µM, first compound 0.00316 µM
[2] = second compound 0.1 µM, first compound 0.01 µM
[3] = second compound 0.1 µM, first compound 0.0316 µM
[4] = second compound 0.1 µM, first compound 0.1 µM
[5] = second compound 0.316 µM, first compound 0.00316 µM
[6] = second compound 0.316 µM, first compound 0.01 µM
[7] = second compound 0.316 µM, first compound 0.0316 µM
[8] = second compound 0.316 µM, first compound 0.1 µM
[9] = second compound 1 µM, first compound 0.00316 µM
[10] = second compound 1 µM, first compound 0.01 µM
[11] = second compound 1 µM, first compound 0.0316 µM
[12] = second compound 1 µM, first compound 0.1 µM
[13] = second compound 3.16 µM, first compound 0.00316 µM
[14] = second compound 3.16 µM, first compound 0.01 µM
[15] = second compound 3.16 µM, first compound 0.0316 µM
[16] = second compound 3.16 µM, first compound 0.1 µM
[17] = second compound 10 µM, first compound 0.00316 µM
[18] = second compound 10 µM, first compound 0.01 µM
[19] = second compound 10 µM, first compound 0.0316 µM
[20] = second compound 10 µM, first compound 0.1 µM
[21] = second compound 0.1 µM, first compound 0.316 µM
[22] = second compound 0.1 µM, first compound 1 µM
[23] = second compound 0.316 µM, first compound 0.316 µM
[24] = second compound 0.316 µM, first compound 1 µM
[25] = second compound 1 µM, first compound 0.316 µM
[26] = second compound 1 µM, first compound 1 µM
[27] = second compound 3.16 µM, first compound 0.316 µM
[28] = second compound 3.16 µM, first compound 1 µM
[29] = second compound 10 µM, first compound 0.316 µM
[30] = second compound 10 µM, first compound 1 µM

Row | Compound | IC50 (second compound 0.1 µM) [nM] | IC50 (second compound 0.316 µM) [nM] | IC50 (second compound 1 µM) [nM] | IC50 (second compound 3.16 µM) [nM] | IC50 (second compound 10 µM) [nM] | viability, T/C [1] [%] | viability, T/C [2] [%] | viability, T/C [3] [%] | viability, T/C [4] [%] | viability, T/C [5] [%] | viability, T/C [6] [%] | viability, T/C [7] [%] | viability, T/C [8] [%] | viability, T/C [9] [%] | viability, T/C [11] [%] | viability, T/C [12] [%] | viability, T/C [15] [%] | viability, T/C [16] [%] | viability, T/C [19] [%] | viability, T/C [20] [%] | further results
1 | CC(C)CC(NC(=O)CNC(=O)c1cc(Cl)ccc1Cl)B1OC(=O)CC(CC(=O)O)(C(=O)O)O1 (stereo not given) + NC1CC1c1ccc(-c2cccc(O)c2)cc1 | 23.6 | 23.8 | 25.9 | 19.5 | 17.7 | 97.9 | 84.5 | 38.3 | 2.37 | 102 | 81.3 | 39.8 | 2.3 | 96.2 | 43.4 | 3.84 | 28.5 | 4.76 | 34.9 | 2.76 | viability, T/C (second compound 0.1 µM, first compound 0.000316 µM): 101%; viability, T/C (second compound 0.1 µM, first compound 0.001 µM): 108%; viability, T/C (second compound 0.316 µM, first compound 0.000316 µM): 109%; viability, T/C (second compound 0.316 µM, first compound 0.001 µM): 104%; viability, T/C (second compound 1 µM, first compound 0.000316 µM): 97.3%; viability, T/C (second compound 1 µM, first compound 0.001 µM): 93.8%; viability, T/C [10]: 81.3%; viability, T/C (second compound 3.16 µM, first compound 0.000316 µM): 101%; viability, T/C (second compound 3.16 µM, first compound 0.001 µM): 94.7%; viability, T/C [13]: 88.9%; viability, T/C [14]: 80.4%; viability, T/C (second compound 10 µM, first compound 0.000316 µM): 90.3%; viability, T/C (second compound 10 µM, first compound 0.001 µM): 88.9%; viability, T/C [17]: 81%; viability, T/C [18]: 64.9%
2 | COc1ccc([C@@H](O)c2cc(-c3ncnc4cc(N5CCOCC5)ccc34)c(F)cc2Cl)nn1 + NC1CC1c1ccc(-c2cccc(O)c2)cc1 | 3050 | 3240 | 3230 | 3250 | 1940 | – | – | 106 | 99.8 | – | – | 106 | 105 | – | 105 | 99.1 | 101 | 96 | 84.6 | 87.3 | viability, T/C [21]: 84.8%; viability, T/C [22]: 68.4%; viability, T/C (second compound 0.1 µM, first compound 3.16 µM): 50.7%; viability, T/C (second compound 0.1 µM, first compound 10 µM): 25.9%; viability, T/C [23]: 92.7%; viability, T/C [24]: 74%; viability, T/C (second compound 0.316 µM, first compound 3.16 µM): 51.4%; viability, T/C (second compound 0.316 µM, first compound 10 µM): 27.7%; viability, T/C [25]: 90.6%; viability, T/C [26]: 73.1%; viability, T/C (second compound 1 µM, first compound 3.16 µM): 50.5%; viability, T/C (second compound 1 µM, first compound 10 µM): 25.7%; viability, T/C [27]: 83.4%; viability, T/C [28]: 72.4%; viability, T/C (second compound 3.16 µM, first compound 3.16 µM): 50.5%; viability, T/C (second compound 3.16 µM, first compound 10 µM): 22.6%; viability, T/C [29]: 77%; viability, T/C [30]: 61.8%; viability, T/C (second compound 10 µM, first compound 3.16 µM): 41.4%; viability, T/C (second compound 10 µM, first compound 10 µM): 23.2%
3 | O=C(C=Cn1cnc(-c2cc(C(F)(F)F)cc(C(F)(F)F)c2)n1)NNc1cnccn1 + NC1CC1c1ccc(-c2cccc(O)c2)cc1 | 4.7 | 4.42 | 4.18 | 4.79 | 4.02 | 65.4 | 19.6 | 13 | 6.61 | 60.6 | 23.3 | 12.6 | 7.91 | 59.5 | 13.9 | 8.19 | 16.5 | 10.7 | 16 | 10.1 | viability, T/C [21]: 1.72%; viability, T/C [22]: 0.88%; viability, T/C [23]: 2.06%; viability, T/C [24]: 1.08%; viability, T/C [10]: 20.4%; viability, T/C [25]: 1.99%; viability, T/C [26]: 0.85%; viability, T/C [13]: 64.2%; viability, T/C [14]: 22.7%; viability, T/C [27]: 2.96%; viability, T/C [28]: 0.98%; viability, T/C [17]: 57.1%; viability, T/C [18]: 22.1%; viability, T/C [29]: 5.13%; viability, T/C [30]: 2.52%
